Source: ChEMBL document CHEMBL4340547, “Synthesis and SAR development of quinoline analogs as novel P2X7 receptor antagonists” (Bioorg Med Chem Lett, 2019)

Tests used:
[1] = Protein binding in rat plasma assessed as unbound fraction; type: ADME, cell-free
[2] = Dose normalized Cmax in mouse at 0.5 mg/kg, po; type: ADME, organism-based; settings: in vivo
[3] = Clearance in mouse at 0.2 mg/kg, iv or 0.5 mg/kg, po; type: ADME, organism-based; settings: in vivo
[4] = AUC in mouse plasma at 5 mg/kg, po; type: ADME, organism-based
P2X purinoceptor 7 [5] = biological target: T1, P2X purinoceptor 7 (Homo sapiens, UniProt Q99572); experiment: Antagonist activity at human P2X7 receptor expressed in HEK293 cells assessed as inhibition of BzATP-induced YO PRO dye uptake preincubated for 20 mins followed by YO PRO dye and BzATP addition measured after 30 mins by fluorescence assay; type: cell-based
T1 sequence (Q99572 whole entry): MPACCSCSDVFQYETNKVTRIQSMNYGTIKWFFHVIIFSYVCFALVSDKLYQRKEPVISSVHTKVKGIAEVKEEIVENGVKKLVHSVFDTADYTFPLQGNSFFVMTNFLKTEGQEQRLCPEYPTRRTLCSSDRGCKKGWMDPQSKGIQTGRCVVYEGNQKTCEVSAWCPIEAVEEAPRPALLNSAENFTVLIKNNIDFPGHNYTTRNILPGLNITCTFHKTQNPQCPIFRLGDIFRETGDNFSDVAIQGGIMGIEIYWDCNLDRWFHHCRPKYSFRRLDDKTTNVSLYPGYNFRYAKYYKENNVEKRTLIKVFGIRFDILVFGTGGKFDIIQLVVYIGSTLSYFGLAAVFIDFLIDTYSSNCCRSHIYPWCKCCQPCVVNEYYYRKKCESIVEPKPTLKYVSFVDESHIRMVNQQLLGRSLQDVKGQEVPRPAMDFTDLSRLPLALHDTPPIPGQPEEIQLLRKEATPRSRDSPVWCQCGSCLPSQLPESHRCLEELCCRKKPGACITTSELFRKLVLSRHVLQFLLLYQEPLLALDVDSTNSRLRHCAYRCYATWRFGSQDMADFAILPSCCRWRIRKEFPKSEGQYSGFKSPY

P2X purinoceptor 7 [6] = biological target: T2, P2X purinoceptor 7 (Rattus norvegicus, UniProt Q64663); experiment: Antagonist activity at rat P2X7 receptor assessed as inhibition of BzATP-induced YO PRO dye uptake preincubated for 20 mins followed by YO PRO dye and BzATP addition measured after 30 mins by fluorescence assay
T2 sequence (Q64663 whole entry): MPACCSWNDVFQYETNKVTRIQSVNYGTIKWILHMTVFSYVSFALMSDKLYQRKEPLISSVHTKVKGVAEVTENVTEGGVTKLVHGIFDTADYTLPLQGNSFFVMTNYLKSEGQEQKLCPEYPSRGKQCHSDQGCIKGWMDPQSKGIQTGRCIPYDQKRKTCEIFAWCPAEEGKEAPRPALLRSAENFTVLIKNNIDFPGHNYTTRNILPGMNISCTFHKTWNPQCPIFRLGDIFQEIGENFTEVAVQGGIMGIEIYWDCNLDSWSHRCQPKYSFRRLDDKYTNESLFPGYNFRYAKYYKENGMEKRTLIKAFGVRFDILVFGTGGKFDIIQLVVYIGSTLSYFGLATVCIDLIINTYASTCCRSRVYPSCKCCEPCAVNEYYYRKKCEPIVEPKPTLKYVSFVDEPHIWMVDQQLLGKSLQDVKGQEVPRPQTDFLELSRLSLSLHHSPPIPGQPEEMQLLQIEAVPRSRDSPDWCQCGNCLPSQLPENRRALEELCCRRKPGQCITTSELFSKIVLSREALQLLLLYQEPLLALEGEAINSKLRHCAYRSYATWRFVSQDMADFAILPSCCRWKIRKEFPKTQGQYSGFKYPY

MDR [7] = experiment: Efflux ratio of apparent permeability in MDCK cells expressing MDR; type: ADME, cell-based, Canis lupus familiaris; settings: dog, MDCK-MDR1
[8] = Protein binding in mouse plasma assessed as unbound fraction; type: ADME, cell-free
[9] = Protein binding in mouse plasma; type: ADME, cell-free; settings: read-out: PPB
[10] = Intrinsic clearance in human liver microsomes; type: ADME, Microsome; settings: read-out: CLH
[11] = Volume of distribution in mouse at 0.2 mg/kg, iv or 0.5 mg/kg, po; type: ADME, organism-based; settings: in vivo
P2X purinoceptor 7 [12] = biological target: T1, P2X purinoceptor 7; experiment: Antagonist activity at P2X7R in LPS-stimulated human THP1 cells assessed as inhibition of BzATP-induced IL-1beta release preincubated for 30 mins followed by BzATP stimulation and measured after 30 mins by sandwich ELISA
[13] = Protein binding in human plasma; type: ADME, cell-free; settings: read-out: PPB
[14] = Protein binding in mouse brain assessed as unbound fraction at 5 mg/kg, po; type: ADME, organism-based
MDR [15] = experiment: Apparent permeability across apical to basolateral side in MDCK cells expressing MDR; type: ADME, cell-based, Canis lupus familiaris; settings: dog, MDCK-MDR1
[16] = Dose normalized AUC in mouse at 0.5 mg/kg, po; type: ADME, organism-based; settings: in vivo
[17] = Terminal half life in mouse at 0.2 mg/kg, iv or 0.5 mg/kg, po; type: ADME, organism-based; settings: in vivo, read-out: beta t1/2 (converted)
[18] = Protein binding in mouse plasma assessed as unbound fraction at 5 mg/kg, po; type: ADME, organism-based
[19] = Protein binding in human plasma assessed as unbound fraction; type: ADME, cell-free
[20] = AUC in mouse brain at 5 mg/kg, po; type: ADME, organism-based
[21] = Intrinsic clearance in rat liver microsomes; type: ADME, Microsome; settings: read-out: CLH
[22] = Unbound brain to plasma concentration ratio in mouse at 5 mg/kg, po; type: ADME, organism-based; settings: read-out: K(p,uu,brain)
[23] = Intrinsic clearance in mouse liver microsomes; type: ADME, Microsome; settings: read-out: CLH
[24] = Dose normalized Cmax in mouse at 0.2 mg/kg, iv; type: ADME, organism-based; settings: in vivo
[25] = biological target: Voltage-gated inwardly rectifying potassium channel KCNH2 (Homo sapiens, UniProt Q12809); experiment: Activity at human ERG
P2X purinoceptor 7 [26] = biological target: T3, P2X purinoceptor 7 (Mus musculus, UniProt Q9Z1M0); experiment: Antagonist activity at mouse P2X7 receptor assessed as inhibition of BzATP-induced YO PRO dye uptake preincubated for 20 mins followed by YO PRO dye and BzATP addition measured after 30 mins by fluorescence assay
T3 sequence (Q9Z1M0 whole entry): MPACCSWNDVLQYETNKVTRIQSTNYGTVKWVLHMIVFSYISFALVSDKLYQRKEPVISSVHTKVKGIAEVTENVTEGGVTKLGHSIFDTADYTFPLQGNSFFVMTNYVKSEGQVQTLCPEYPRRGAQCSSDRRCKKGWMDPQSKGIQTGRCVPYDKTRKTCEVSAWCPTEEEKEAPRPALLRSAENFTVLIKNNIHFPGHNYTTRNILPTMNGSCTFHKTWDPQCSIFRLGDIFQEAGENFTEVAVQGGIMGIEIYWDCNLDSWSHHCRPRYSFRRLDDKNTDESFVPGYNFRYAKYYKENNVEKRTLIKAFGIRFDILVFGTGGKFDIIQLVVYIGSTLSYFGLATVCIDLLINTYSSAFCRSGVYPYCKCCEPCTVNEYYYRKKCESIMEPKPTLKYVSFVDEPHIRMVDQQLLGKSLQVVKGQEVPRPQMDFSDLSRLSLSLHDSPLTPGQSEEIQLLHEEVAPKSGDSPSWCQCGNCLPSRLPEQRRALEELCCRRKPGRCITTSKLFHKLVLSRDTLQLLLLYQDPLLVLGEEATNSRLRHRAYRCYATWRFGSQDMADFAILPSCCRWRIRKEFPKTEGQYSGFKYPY

[27] = Protein binding in rat plasma; type: ADME, cell-free; settings: read-out: PPB
[28] = Dose normalized AUC in mouse at 0.2 mg/kg, iv; type: ADME, organism-based; settings: in vivo
[29] = Oral bioavailability in mouse at 0.5 mg/kg; type: ADME, organism-based; settings: in vivo

Voltage-gated inwardly rectifying potassium channel KCNH2, sequence (Q12809 whole entry): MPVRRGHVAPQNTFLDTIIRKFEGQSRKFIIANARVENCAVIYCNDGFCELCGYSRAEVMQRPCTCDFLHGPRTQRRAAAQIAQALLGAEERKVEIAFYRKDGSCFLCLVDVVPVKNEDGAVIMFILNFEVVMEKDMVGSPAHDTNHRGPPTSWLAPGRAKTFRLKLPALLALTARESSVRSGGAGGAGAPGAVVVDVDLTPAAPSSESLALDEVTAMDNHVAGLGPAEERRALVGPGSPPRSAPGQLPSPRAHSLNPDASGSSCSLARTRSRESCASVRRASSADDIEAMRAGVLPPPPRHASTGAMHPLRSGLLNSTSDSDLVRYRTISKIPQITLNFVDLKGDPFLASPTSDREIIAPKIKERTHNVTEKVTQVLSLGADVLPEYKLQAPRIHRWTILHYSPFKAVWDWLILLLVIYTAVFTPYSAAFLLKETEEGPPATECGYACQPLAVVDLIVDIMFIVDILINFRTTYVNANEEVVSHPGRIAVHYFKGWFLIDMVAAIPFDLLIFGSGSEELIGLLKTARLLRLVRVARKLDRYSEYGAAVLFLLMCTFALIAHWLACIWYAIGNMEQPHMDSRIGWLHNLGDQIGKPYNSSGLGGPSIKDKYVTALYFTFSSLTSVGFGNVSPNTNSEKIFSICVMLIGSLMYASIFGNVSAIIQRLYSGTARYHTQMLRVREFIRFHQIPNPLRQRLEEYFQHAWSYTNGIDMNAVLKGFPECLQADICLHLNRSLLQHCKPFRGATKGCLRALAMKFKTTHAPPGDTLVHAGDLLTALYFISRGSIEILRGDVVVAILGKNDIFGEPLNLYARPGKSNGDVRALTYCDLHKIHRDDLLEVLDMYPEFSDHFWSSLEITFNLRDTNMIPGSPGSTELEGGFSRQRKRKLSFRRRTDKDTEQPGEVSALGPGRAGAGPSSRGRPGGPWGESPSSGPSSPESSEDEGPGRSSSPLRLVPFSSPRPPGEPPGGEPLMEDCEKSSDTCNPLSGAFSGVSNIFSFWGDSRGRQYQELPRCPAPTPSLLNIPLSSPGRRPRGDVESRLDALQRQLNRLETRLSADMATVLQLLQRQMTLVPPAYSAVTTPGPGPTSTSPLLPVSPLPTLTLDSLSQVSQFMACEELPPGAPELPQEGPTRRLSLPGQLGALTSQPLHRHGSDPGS

For `O=C(NCC1CCC(F)(F)CC1)c1c(Cl)ccc2nc(N3CC[C@H](F)C3)ccc12`, the fraction unbound [1] was 0.041, the Cmax/dose [2] was 75.1 ng/mL and the clearance [3] was 69.8 mL/min/kg. For the same compound, the AUC [4] was 84.7 ng·h/mL, the IC50 (P2X purinoceptor 7 [5]) was 0.0082 µM and the IC50 (P2X purinoceptor 7 [6]) was 5.1 µM. The efflux ratio (MDR [7]) was 0.85, the fraction unbound [8] was 0.03 and the fraction unbound [9] was 0.03 to 0.1. It also gave a microsomal CLint [10] of 10 µL/min/mg, a Vd [11] of 1.81 L/kg and an IC50 (P2X purinoceptor 7 [12]) of 0.109 µM. It also gave a fraction unbound [13] of 0.03 to 0.1, a fraction unbound [14] of 0.03 and a Papp A→B (MDR [15]) of 14.1 to 14.4 ×10⁻⁶ cm/s. The AUC/dose [16] was 72.9 ng·h/mL, the half-life [17] was 28.8 min and the fraction unbound [18] was 0.03. For the same compound, the fraction unbound [19] was 0.055, the AUC [20] was 30.9 ng·h/mL and the microsomal CLint [21] was 21 µL/min/mg. The Kp uu [22] was 0.37, the microsomal CLint [23] was 49 µL/min/mg and the Cmax/dose [24] was 545 ng/mL. For the same compound, the Activity [25] was 30 µM, the IC50 (P2X purinoceptor 7 [26]) was 2.04 µM and the fraction unbound [27] was 0.03 to 0.1. It also gave an AUC/dose [28] of 238 ng·h/mL and a bioavailability [29] of 31%.
